Assays:
[1] = system: PGM1-CDG patients; assay: Open-label prospective study of oral D-gal supplementation: safety and tolerability; format: in vivo, human
Source text: The study design was an open-label prospective study. Patients with biochemically and genetically confirmed PGM1 deficiency were recruited into the study. Individuals with an existing diagnosis of aldolase B deficiency, galactosemia, hemolytic uremic syndrome, severe anemia, galactose intolerance, or intellectual disability were excluded from the study. Nine patients were enrolled in the study, five females and four males. Patient age ranged from 19 months to 21 years old at the time of enrollment (mean age 9.75 years). Informed written consent was obtained before the start of study. A primary end-point was to assess the safety and tolerability of oral D-gal supplementation and to identify physiological biomarkers that are responsive to D-gal supplementation in a heterogeneous genetic background. The effect of D-gal in PGM1-CDG patients was also monitored via glycomics. Secondary endpoints were the restoration of the plasma glycan subfractions, monitored via glycomics (Table 3), and normalization of antithrombin III activity and serum alanine transaminase (ALT) levels.
Participants in this pilot study received oral D-gal supplementation, added to the regular diet, over 18 weeks. D-gal (pure and soluble D-galactose powder: D-GALACTOSE or Galaxtra™) was provided as medical food/nutritional supplement. 50 g D-gal equals 5 tablespoons of “powdered sugar”. D-gal was added to a meal once a day. It can be added to any food or drink and has a mildly sweet aftertaste.
The D-gal intake was increased over the study period in increments as follows: weeks 0-6 (T0-T1), 0.5 g/kg per day; weeks 6-12 (T1-T2), 1.0 g/kg per day; weeks 12-18 (T2-T3), 1.5 g/kg per day (FIG. 2). The intake was increased gradually to reach the recommended maximum daily dose with minimal gastrointestinal irritation (diarrhea, stomachache, nausea) and metabolic side effects (presence of urinary galactitol).
Tolerability and side effects of oral D-gal supplementation, based on studies in blood (glucose, lactic acid, ammonia, galactose-1-phosphate) and urine (galactitol excretion), were monitored at every time point.
Dietary assessment, clinical evaluation (general physical examination and anthropometric measurements), and laboratory and biochemical studies were completed every 6 weeks (T0, T1, T2 and T3).
Liver transaminases (aspartate transaminase (AST) and alanine transaminase (ALT)), creatine kinase (CK), commonly assayed glycoproteins (thyroid stimulating hormone (TSH), thyroxine-binding globulin (TBG), and insulin-like growth factor binding protein 3 (IGF3BP)), and coagulation parameters (Factor IX, Factor XI, activated […] (aPTT), and anti-thrombin III (ATIII)), were measured in blood. Patent 1 had additional Factor XI, and XIII measurements. Serum galactose-1-phosphate and urine galactitol were measured to monitor safety and tolerability of galactose supplementation. Biochemical studies to evaluate changes in glycosylation included isoelectric focusing (IEF) of serum transferrin and glycomic analysis in blood by mass spectrometry.
Electrocardiography/echocardiography and hepatic ultrasonography were conducted at T0 and T3.

[2] = system: skin fibroblasts of Patient 2; assay: N- and O-linked glycan analysis by MALDI-TOF mass spectroscopy; format: cell-based, human
Method: Fibroblasts from Patient 2 were used for N- and O-linked glycan analysis with and without D-gal feeding in vitro. Upon reaching 100% confluence, the cells were washed twice with PBS and harvested using a cell scraper. The cells were then pelleted and washed with PBS by centrifugation. Fibroblast pellets were lysed in 200 μL PBS, and 200 μg protein from the cell lysate was denatured and precipitated with ˜2 Å volume of 100% propanol. N-linked and O-linked glycans were released from precipitated protein, and free oligosaccharides were purified from the supernatant. N-linked glycans were released from the cell pellets using the PNGase F kit from New England Biolabs (Ipswich, Mass., USA). O-linked glycans were released using β-elimination with sodium borohydride. The released N-linked glycans from cells or deprotonated total cell lysate were purified and desalted by solid phase extraction using a SepPak C18 and carbograph column. O-linked glycans from cells were purified and desalted using an AG 50W-X8 resin cation exchange column. N-linked glycans, O-linked glycans and oligosaccharides were permethylated with sodium hydroxide and iodomethane in dimethyl sulfoxide (DMSO). After permethylation, glycans were extracted with water/chloroform (2:1, vol/vol) in four steps and dried. Samples were then dissolved in 50% methanol, spotted with 11% 2,5-dihydroxylbenzoic acid matrix (1:1 vol/vol), and measured in triplicates and compared to two healthy controls. Measurements were performed by MALDI-TOF using the positive mode on Ultraflex MALDI-TOF/TOF system (BrunkerDaltonics, Billerica, Mass., USA) as described elsewhere (see, e.g., Xia et al., 2013 Anal Biochem 442:178-185).

[3] = 4 days of 0.75 mM galactose following 18 hours of serum starvation

Structure (SMILES): O=C[C@H](O)[C@@H](O)[C@@H](O)[C@H](O)CO [D-gal, D-galactose]
- Serious adverse events ([1]; 18 weeks oral D-gal): No serious adverse events were reported
- Galactitol excretion in urine ([1]; during the trial): no patients experiencing increased galactitol excretion in urine
- Adverse events ([1]; incremental increase in D-gal intake, monitored weekly): Aside from gastroenteritis in patient 2, no clinical or metabolic adverse events
- Galactose-1-phosphate levels ([1]; patients 1, 2, 3, 5, 7, 9, T2 and T3): no abnormalities were found
- Structural cardiac or liver changes ([1]; study endpoint): No structural cardiac or liver changes were noted
- Clinical rhabdomyolysis ([1]; while on galactose supplementation): none of the patients experienced clinical rhabdomyolysis
- N-glycan m/z 2070.06 Hexose5HexNAc4, Level [2, 3]: Normal
- N-glycan m/z 2431 Sial1Hexose5HexNAc4, Level [2, 3]: Normal
- N-glycan m/z 2605 + 2431 monosialo biantennary glycans, Level [2, 3]: High
- N-glycan m/z 2605 Fuc1Sial1Hexose5HexNAc4, Level [2, 3]: High
- O-glycan m/z 1256 core1, disialyl T, Level [2, 3]: Low
- O-glycan m/z 1706 core2, disalyl, sial2hexose2hexNAc2, Level [2, 3]: High
- O-glycan m/z 1706 core2, disalyl, sial2hexose2hexNAc2, % Total glycan ([2]; 4 days of 0.75 mM galactose following 18 hours of serum starvation, control range 14%): 35.12%
- O-glycan m/z 1256 core1, disialyl T, % Total glycan ([2]; 4 days of 0.75 mM galactose following 18 hours of serum starvation, control range 55.12%): 11.22%
- N-glycan m/z 2070.06 Hexose5HexNAc4, % Total glycan ([2]; 4 days of 0.75 mM galactose following 18 hours of serum starvation, control range <3.88%): 3.65%
- N-glycan m/z 2431 Sial1Hexose5HexNAc4, % Total glycan ([2]; 4 days of 0.75 mM galactose following 18 hours of serum starvation, control range <3.90%): 2.23%
- N-glycan m/z 2605 Fuc1Sial1Hexose5HexNAc4, % Total glycan ([2]; 4 days of 0.75 mM galactose following 18 hours of serum starvation, control range <4.46%): 6.15%
- N-glycan m/z 2605 + 2431 monosialo biantennary glycans, % Total glycan ([2]; 4 days of 0.75 mM galactose following 18 hours of serum starvation, control range <8.36%): 8.38%
- Monosialo core 1 at m/z 895 ([2]; both in control and PGM1-CDG cells): increased
- Sialylation of N-glycans ([2]; in vitro galactose treatment of fibroblasts): improved sialylation
- GlcNAcylation in N-linked or O-linked protein glycosylation profiles ([2]; patient 2 fibroblasts after serum starvation): No change

Reference: US20220241311A1, “METHODS AND MATERIALS FOR TREATING GLYCOSYLATION DISORDERS” (priority 2018, published 2022)
